In patent publication US10030047B2 (Hoffmann-La Roche Inc., priority 2015, dated 2018):
Converted amounts (≈) assume the structure as drawn.

Tested on: A. baumannii strain ATCC19606
Assay: Minimum inhibitory concentration (MIC) determination, microbroth dilution (CLSI)
Assay type: cell-based
Conditions: Acinetobacter baumannii; A. baumannii ATCC19606; CAMHB; read after 20 hours; >=80% growth inhibition; read-out: ATCC19606 MIC
Method in brief: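 CLSI broth microdilution in cation-adjusted Mueller Hinton broth with twofold compound dilutions and ~5×10^5 CFU/ml inoculum, incubated at 35±2 °C. MIC read after 20 h as lowest concentration inhibiting ≥80% of growth, by eye and OD 600 nm.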

| MIC | Structure (SMILES) |
| --- | --- |
| 0.5 µg/mL (≈ 0.605 µM) | COc1cc(-c2cc(Cl)c3c(c2)CNC(=O)[C@H](Cc2c(C)[nH]c4ccccc24)N(C)C(=O)[C@H](CCCCN)NC(=O)[C@H](CCCN)NCc2cccnc2S3)ccn1 [Example 171, (11S,14S,17S)-14-(4-Amino-butyl)-11-(3-amino-propyl)-25-chloro-23-(2-methoxy-pyridin-4-yl)-16-methyl-17-(2-methyl-1H-indol-3-ylmethyl)-2-thia-4,10,13,16,19-pentaaza-tricyclo[19.4.0.0*3,8*]pentacosa-1(25),3(8),4,6,21,23-hexaene-12,15,18-trione] |
| 2 µg/mL (≈ 2.46 µM) | CN1C(=O)[C@H](CCCCN)NC(=O)[C@H](CCCN)NCc2ccccc2Sc2c(cc(-c3ccccc3)cc2C(F)(F)F)CNC(=O)[C@@H]1Cc1c[nH]c2ccccc12 [Example 128, (12S,15,18S)-15-(4-Amino-butyl))-18-(3-amino-propyl)-12-(1H-indo-3-ylmethyl)-13-methyl-6-phenyl-4-trifluoromethyl-2-thia-10,13,16,19-tetraaza-tricyclo[19.4.0.0*3,8*]pentacosa-1(25),3,5,7,21,23-hexaene-11,14,17-trione] |
| 2 µg/mL (≈ 2.55 µM) | CN1C(=O)[C@H](CCCCN)NC(=O)[C@H](CCCN)NCc2ccccc2Sc2c(Cl)cc(-c3cn(C)cn3)cc2CNC(=O)[C@@H]1Cc1c[nH]c2ccccc12 [Example 154, (12S,15S,18S)-15-(4-Amino-butyl)-18-(3-amino-propyl)-4-chloro-12-(1H-indol-3-ylmethyl)-13-methyl-6-(1-methyl-1H-imidazol-4-yl)-2-thia-10,13,16,19-tetraaza-tricyclo[19.4.0.0*3,8*]pentacosa-1(25),3,5,7,21,23-hexaene-11,14,17-trione] |
| 32 µg/mL (≈ 45.4 µM) | CN1C(=O)[C@H](CCCCN)NC(=O)[C@H](CCCN)NCc2ccccc2Sc2ccccc2CNC(=O)[C@@H]1Cc1c[nH]c2cc(Cl)ccc12 [Example 15, (12S,15S,18S)-15-(4-Amino-butyl)-18-(3-amino-propyl)-12-(6-chloro-1H-indol-3-ylmethyl)-13-methyl-2-thia-10,13,16,19-tetraaza-tricyclo[19.4.0.0*3,8*]pentacosa-1(21),3,5,7,22,24-hexaene-11,14,17-trione] |
| 16 µg/mL (≈ 23.3 µM) | CN1C(=O)[C@H](CCCCN)NC(=O)[C@H](CCCN)NCc2cc(F)ccc2Sc2ccccc2CNC(=O)[C@@H]1Cc1c[nH]c2ccccc12 [Example 56, (12S,15S,18S)-15-(4-Amino-butyl)-18-(3-amino-propyl)-23-fluoro-12-(1H-indol-3-ylmethyl)-13-methyl-2-thia-10,13,16,19-tetraaza-tricyclo[19.4.0.0*3,8*]pentacosa-1(25),3,5,7,21,23-hexaene-11,14,17-trione] |
| 4 µg/mL (≈ 5.81 µM) | CN1C(=O)[C@H](CCCCN)NC(=O)[C@H](CCCN)NCc2ccccc2Sc2ccc(F)cc2CNC(=O)[C@@H]1Cc1c[nH]c2ccccc12 [Example 47, (12S,15S,18S)-15-(4-Amino-butyl)-18-(3-amino-propyl)-6-fluoro-12-(1H-indol-3-ylmethyl)-13-methyl-2-thia-10,13,16,19-tetraaza-tricyclo[19.4.0.0*3,8*]pentacosa-1(25),3,5,7,21,23-hexaene-11,14,17-trione] |
| 0.25 µg/mL (≈ 0.318 µM) | CCN1C(=O)[C@H](CCCCN)NC(=O)[C@H](CCCN)NCc2cccnc2Sc2c(Cl)ccc(C(F)(F)F)c2CNC(=O)[C@@H]1Cc1c[nH]c2ccccc12 [Example 79, (11S,14S,17S)-14-(4-Amino-butyl)-11-(3-amino-propyl)-25-chloro-16-ethyl-17-(1H-indol-3-ylmethyl)-22-trifluoromethyl-2-thia-4,10,13,16,19-pentaaza-tricyclo[19.4.0.0*3,8*]pentacosa-1(25),3(8),4,6,21,23-hexaene-12,15,18-trione] |
| 2 µg/mL (≈ 2.35 µM) | CN1C(=O)[C@H](CCCCN)NC(=O)[C@H](CCCN)NCc2cccnc2Sc2c(Cl)cc(C#CCOCc3ccccc3)cc2CNC(=O)[C@@H]1Cc1c[nH]c2ccccc12 [Example 188, (11S,14S,17S)-14-(4-Amino-butyl)-11-(3-amino-propyl)-23-(3-benzyloxy-prop-1-ynyl)-25-chloro-17-(1H-indol-3-ylmethyl)-16-methyl-2-thia-4,10,13,16,19-pentaaza-tricyclo[19.4.0.0*3,8*]pentacosa-1(25),3(8),4,6,21,23-hexaene-12,15,18-trione] |
| 8 µg/mL (≈ 10.7 µM) | CN1C(=O)[C@H](CCCCN)NC(=O)[C@H](CCCN)NCc2cccnc2Sc2c(Cl)cc(B(O)O)cc2CNC(=O)[C@@H]1Cc1c[nH]c2ccccc12 [Example 116, {(7S,10S,13S)-10-(4-aminobutyl)-7-(3-aminopropyl)-20-chloro-13-[(1H-indol-3-yl)methyl]-12-methyl-8,11,14-trioxo-5,6,7,8,9,10,11,12,13,14,15,16-dodecahydropyrido[2,3-b][1,5,8,11,14]benzothiatetraazacycloheptadecin-18-yl}boronic acid] |
| 8 µg/mL (≈ 11.6 µM) | CN1C(=O)[C@H](CCCCN)NC(=O)[C@H](CCCN)NCc2c(F)cccc2Sc2ccccc2CNC(=O)[C@@H]1Cc1c[nH]c2ccccc12 [Example 35, (12S,15S,18S)-15-(4-Amino-butyl)-18-(3-amino-propyl)-22-fluoro-12-(1H-indol-3-ylmethyl)-13-methyl-2-thia-10,13,16,19-tetraaza-tricyclo[19.4.0.0*3,8*]pentacosa-1(21),3,5,7,22,24-hexaene-11,14,17-trione] |
| 1 µg/mL (≈ 1.24 µM) | CN1C(=O)[C@H](CCCCN)NC(=O)[C@H](CCCN)NCc2cccnc2Sc2c(Cl)cc(-c3ccnc(C#N)c3)cc2CNC(=O)[C@@H]1Cc1c[nH]c2ccccc12 [Example 229, 4-[(11S,14S,17S)-14-(4-Amino-butyl)-11-(3-amino-propyl)-25-chloro-17-(1H-indol-3-ylmethyl)-16-methyl-12,15,18-trioxo-2-thia-4,10,13,16,19-pentaaza-tricyclo[19.4.0.0*3,8*]pentacosa-1(21),3,5,7,22,24-hexaen-23-yl]-pyridine-2-carbonitrile] |
| 0.25 µg/mL (≈ 0.332 µM) | CCN1C(=O)[C@H](CCCCN)NC(=O)[C@H](CCCN)NCc2cccnc2Sc2c(Cl)ccc(Cl)c2CNC(=O)[C@@H]1Cc1c[nH]c2ccccc12 [Example 78, (11S,14S,17S)-14-(4-Amino-butyl)-11-(3-amino-propyl)-22,25-dichloro-16-ethyl-17-(1H-indol-3-ylmethyl)-2-thia-4,10,13,16,19-pentaaza-tricyclo[19.4.0.0*3,8*]pentacosa-1(25),3(8),4,6,21,23-hexaene-12,15,18-trione] |
| 0.25 µg/mL (≈ 0.35 µM) | COc1cc(C)c2c(c1)CNC(=O)[C@H](Cc1c[nH]c3ccccc13)N(C)C(=O)[C@H](CCCCN)NC(=O)[C@H](CCCN)NCc1ccccc1S2 [Example 50, (12S,15S,18S)-15-(4-Amino-butyl)-18-(3-amino-propyl)-12-(1H-indol-3-ylmethyl)-6-methoxy-4,13-dimethyl-2-thia-10,13,16,19-tetraaza-tricyclo[19.4.0.0*3,8*]pentacosa-1(25),3,5,7,21,23-hexaene-11,14,17-trione] |
| 0.12 µg/mL (≈ 0.159 µM) | CCN1C(=O)[C@H](CCCCN)NC(=O)[C@H](CCCN)NCc2cccnc2Sc2c(Cl)cc(Cl)cc2CNC(=O)[C@@H]1Cc1c[nH]c2ccccc12 [Example 80, (11S,14S,17S)-14-(4-Amino-butyl)-11-(3-amino-propyl)-23,25-dichloro-16-ethyl-17-(1H-indol-3-ylmethyl)-2-thia-4,10,13,16,19-pentaaza-tricyclo[19.4.0.0*3,8*]pentacosa-1(25),3(8),4,6,21,23-hexaene-12,15,18-trione] |
| 0.12 µg/mL (≈ 0.151 µM) | Cc1[nH]c2ccccc2c1C[C@H]1C(=O)NCc2c(-c3ccncc3)ccc(Cl)c2Sc2ncccc2CN[C@@H](CCCN)C(=O)N[C@@H](CCCCN)C(=O)N1C [Example 202, (11S,14S,17S)-14-(4-Amino-butyl)-11-(3-amino-propyl)-25-chloro-16-methyl-17-(2-methyl-1H-indol-3-ylmethyl)-22-pyridin-4-yl-2-thia-4,10,13,16,19-pentaaza-tricyclo[19.4.0.0*3,8*]pentacosa-1(25),3(8),4,6,21,23-hexaene-12,15,18-trione] |
| 16 µg/mL (≈ 21.6 µM) | CN1C(=O)[C@H](CCCCN)NC(=O)[C@H](CC(N)=O)NCc2cccnc2Sc2c(Cl)cc(Cl)cc2CNC(=O)[C@@H]1Cc1c[nH]c2ccccc12 [Example 127, 2-[(11S,14S,17S)-14-(4-Amino-butyl)-23,25-dichloro-17-(1H-indol-3-ylmethyl)-16-methyl-12,15,18-trioxo-2-thia-4,10,13,16,19-pentaaza-tricyclo[19.4.0.0*3,8*]pentacosa-1(25),3(8),4,6,21,23-hexaen-11-yl]-acetamide] |
| 2 µg/mL (≈ 2.29 µM) | Cc1[nH]c2ccccc2c1C[C@H]1C(=O)NCc2cc(-c3ccc(S(C)(=O)=O)cc3)cc(Cl)c2Sc2ncccc2CN[C@@H](CCCN)C(=O)N[C@@H](CCCCN)C(=O)N1C [Example 234, (11S,14S,17S)-14-(4-Amino-butyl)-11-(3-amino-propyl)-25-chloro-23-(4-methanesulfonyl-phenyl)-16-methyl-17-(2-methyl-1H-indol-3-ylmethyl)-2-thia-4,10,13,16,19-pentaaza-tricyclo[19.4.0.0*3,8*]pentacosa-1(25),3(8),4,6,21,23-hexaene-12,15,18-trione] |
| 0.5 µg/mL (≈ 0.696 µM) | Cc1[nH]c2ccccc2c1C[C@H]1C(=O)NCc2cc(Cl)ccc2Sc2ccccc2CN[C@@H](CCCN)C(=O)N[C@@H](CCCCN)C(=O)N1C [Example 57, (12S,15S,18S)-15-(4-Amino-butyl)-18-(3-amino-propyl)-6-chloro-13-methyl-12-(2-methyl-1H-indol-3-ylmethyl)-2-thia-10,13,16,19-tetraaza-tricyclo[19.4.0.0*3,8*]pentacosa-1(21),3,5,7,22,24-hexaene-11,14,17-trione] |
| 0.12 µg/mL (≈ 0.139 µM) | CN1C(=O)[C@H](CCCCN)NC(=O)[C@H](CCCN)NCc2cccnc2Sc2c(Cl)ccc(-c3ccc(S(N)(=O)=O)cc3)c2CNC(=O)[C@@H]1Cc1c[nH]c2ccccc12 [Example 224, 4-[(11S,14S,17S)-14-(4-Amino-butyl)-11-(3-amino-propyl)-25-chloro-17-(1H-indol-3-ylmethyl)-16-methyl-12,15,18-trioxo-2-thia-4,10,13,16,19-pentaaza-tricyclo[19.4.0.0*3,8*]pentacosa-1(21),3,5,7,22,24-hexaen-22-yl]-benzenesulfonamide] |
